Measurements: the NIST ThermoML archive (doi:10.1021/je200799u)
Numbers after ± are expanded uncertainties.

Test: refractive index (Na D-line) (dimensionless)
Details: 298.15 K; 101.33 kPa; Liquid; Standard Abbe refractometry

**Q.** For CC(=O)[O-].C[NH2+]CCO [N-methyl-2-hydroxyethylammonium acetate], which refractive index is on record?
**A.** 1.4584 ± 0.0012

**Q.** For CCCC(=O)[O-].C[NH2+]CCO [N-methyl-2-hydroxyethylammonium butanoate], which refractive index is on record?
**A.** 1.4555 ± 0.0012

**Q.** Which refractive index does the source give for CCCCCC(=O)[O-].C[NH2+]CCO [N-methyl-2-hydroxyethylammonium hexanoate] here?
**A.** 1.4563 ± 0.0012

**Q.** With CCCCCCCCCCCC [dodecane] as the compound, how does the refractive index read?
**A.** 1.4196 ± 0.0007
